These results are taken from patent US8623865B2, “Acylpiperazinones and their use as pharmaceuticals” (Fab Parma S.A.S, priority 2009, dated 2014).

In brackets after ≈: the same amount, converted by molar mass. Several values for one entry are separate records, joined by “and”; a condition that tells them apart may be missing. Equal entries are not always repeated. Where two headings read alike, the source gives them in different places.

For one data set, the system named is MSSA (IHMA #555189). Put plainly: MIC, broth microdilution (susceptibility method), MSSA. It is filed as cell-based. Conditions: Staphylococcus aureus, read-out: MIC MSSA (IHMA #555189). The procedure: (§1) Antibacterial activity was determined on MSSA CIP 54.146 provided by the Centre de Ressources Biologiques de l'Institut Pasteur. Antibacterial activity was also determined on MRSA (IHMA #510059) and MSSA (IHMA #555189).
(§2) Minimum inhibitory concentrations (MICs) were determined by broth microdilution according to CLSI guidelines (CLSI, M100-20^1, M7-A8^2, M27-A3^3). The compounds were tested in the range from […]. Colonies were taken directly from a second-pass culture plate and prepared to a suspension equivalent to the 0.5 McFarland standard using normal saline. […] The panels were incubated at 35° C. for 16 to 20 hours before reading the MIC endpoints. The compounds of Examples 4 to 8 were dissolved in DMSO to make the initial solutions of 5120 μg/ml. These solutions were diluted 1:10 in sterile water to a stock solution of 512 μg/ml. The stock solutions were further diluted into the appropriate broth medium for the sequential dilutions used in the broth microdilution panels. S. pneumoniae was tested in Mueller Hinton (MH) broth with 3% lysed horse blood and C. albicans was tested in RPMI-1640 medium. All other organisms were tested in MH broth.
(Broth dilution looks for growth in wells or tubes with falling amounts of substance.)

Data set [1] deals with S. pneumoniae (ATCC 49619). Put plainly: MIC, broth microdilution (susceptibility method), S. pneumoniae. It is filed as cell-based. Conditions: Streptococcus pneumoniae, ATCC49619, MH broth with 3% lysed horse blood. The procedure:
as §2

In another data set the test system is E. coli (ATCC 25922). The data set can be described thus: MIC, broth microdilution (susceptibility method), E. coli. It is filed as cell-based. Conditions: Escherichia coli, ATCC25922, MH broth. Here is the method: as §2
The test system of another data set is MRSA (IHMA #510059). Put plainly: MIC, broth microdilution (susceptibility method), MRSA. It is filed as cell-based. Conditions: Staphylococcus aureus, read-out: MIC MRSA (IHMA #510059). The procedure:
as §1, §2

For the next data set, the system named is C. albicans (ATCC 90028). Put plainly: MIC, broth microdilution (susceptibility method), C. albicans. It is filed as cell-based. Conditions: Candida albicans, ATCC90028, RPMI-1640 medium. Here is the method: as §2
The subject of a further data set is E. faecalis (ATCC 29212). The data set can be described thus: MIC, broth microdilution (susceptibility method), E. faecalis. Conditions: Enterococcus faecalis, ATCC29212, MH broth. The format is cell-based. Here is the method: as §2
The target in another data set is HSA (Homo sapiens (Human), UniProt P02768). The data set can be described thus: HSA binding analysis using a chiral HSA column. It is filed as in vitro ADME. The procedure:
The test system used in this analysis was an HSA chiral column.
A 10 mM stock solution of Example 7 (molecular weight of 475.49 and HPLC purity 86.3%) was prepared by dissolving 1.8 mg of a compound of Example 7 in 0.327 ml of DMSO. The compound of Example 7 at a concentration of 100 μM was prepared by diluting the stock solution at 10 mM in DMSO with Potassium phosphate buffer pH 7.0.
The relationship between the retention time (Tr) and percentage of protein binding (PB %) depended on the dead time (T0) and the capacity factor (k′): PB %=[k′/(k′+1)]*100 • where k′=(Tr−T0)/T0 Results

The conditions of data set [2]: rats, intravenous; cited from earlier work.
For data set [3], the target named is recombinant S. aureus FabI enzyme (Staphylococcus aureus (strain MRSA252), UniProt Q6GI75). Put plainly: In vitro inhibition of recombinant S. aureus FabI enzyme (fluorescence based assay). It is filed as biochemical. Conditions: 60 min pre-incubation. The procedure:
Compound inhibitory activity of FabI enzyme is measured in vitro by the IC50 determination using a fluorescence based assay.
The protein FabI from S. aureus is prepared and purified using standard methods for recombinant protein expression after cloning of the gene in a prokaryotic expression vector.
The biochemical activity of the FabI enzyme is assessed using the following method.
The assay buffer “AB” contained 50 mM ADA (N-(2-acetamido)iminodiacetic acid monosodium salt) pH 6.5, 1 mM dithiothreitol, 0.006% Triton-X100 and 50 mM NaCl. The following components are added in a white polystyrene Costar plate (Ref 3912) up to a final volume of 55.5 μL: 1.5 μL DMSO or inhibitor dissolved in DMSO and 54 μL of a FabI/NADPH/NADP+ mixture in AB. After 60 min of pre-incubation at room temperature, the reaction is started by addition of 5 μL of trans-2-octenoyl N-acetylcysteamine thioester (t-o-NAC) to a final volume of 60.5 μL. This reaction mixture is then composed of 2 nM FabI, 40 μM NADPH (Sigma, N7505), 10 μM NADP+ (Sigma, N5755), 100 μM t-O-NAC and compound at defined concentration. Fluorescence intensity of NADPH (λex=360 nm, λem=520 nm) is measured immediately after t-O-NAC addition (T0), and approximately 50 min later (T50) by a Fluostar Optima (BMG) so as to achieve ±30% of NADPH conversion. Enzyme activity is calculated by first subtracting TO signal to T50 and then subtracting background signal (FabI=0). Percentages of inhibition are calculated against untreated samples (Inhibitor=0) and IC50 are fitted to a classical Langmuir equilibrium model using XLFIT (IDBS).

The subject of data set [4] is S. aureus CIP 54.146 (MSSA). Put plainly: MIC, broth microdilution, S. aureus CIP 54.146 (with and without 80% human serum). It is filed as cell-based. Conditions: Staphylococcus aureus. The procedure: The compounds of the invention are useful antibacterial agents having a selective spectrum of activity in vitro against bacterial strains relying on FabI and related targets. […] The activity is presented as Minimum Inhibitory Concentration (MIC) expressed in μg/ml and was determined using broth microdilution or Agar dilution methods.
as §1
This protocol is compliant with Clinical Laboratory Standards Institute (CLSI) methodology as described in M7-A7 document of the CLSI. The compound to be tested is diluted according to a geometric series of reason 2 in pure DMSO. Dilutions are transferred in sterile polystyrene microplates, followed by mid-log phase bacteria in cation-adjusted Muller-Hinton broth (ca-MHB, Fluka, Reference 90922) with a final inoculum of 5×10^5 cfu/ml. Microplates are incubated overnight at 35° C. MIC is defined as the lowest concentration of antimicrobial agent that completely prevents visible bacterial growth. All manipulations, but compound handling (in pure DMSO), are performed under sterile conditions. The final concentration of DMSO in the plates is 2%.
In order to evaluate the serum binding of test compounds, MICs were also measured in ca-MHB supplemented with 80% human serum (HS, Sigma, Reference H4522).

Data set [5] deals with methicillin susceptible Staphylococcus aureus strain ATCC 29213. Put plainly: In vivo protection assay, S. aureus infection of neutropenic mice (survival). More on the design: species or system Swiss mice. Conditions: 48 h.
Where [6] appears, read: ca-MHB supplemented with 80% human serum, read-out: MIC S. aureus CIP 54.146 in the presence of 80% human serum.
Where [7] appears, read: ca-MHB, read-out: MIC S. aureus CIP 54.146.

HSA, sequence (P02768 25-609): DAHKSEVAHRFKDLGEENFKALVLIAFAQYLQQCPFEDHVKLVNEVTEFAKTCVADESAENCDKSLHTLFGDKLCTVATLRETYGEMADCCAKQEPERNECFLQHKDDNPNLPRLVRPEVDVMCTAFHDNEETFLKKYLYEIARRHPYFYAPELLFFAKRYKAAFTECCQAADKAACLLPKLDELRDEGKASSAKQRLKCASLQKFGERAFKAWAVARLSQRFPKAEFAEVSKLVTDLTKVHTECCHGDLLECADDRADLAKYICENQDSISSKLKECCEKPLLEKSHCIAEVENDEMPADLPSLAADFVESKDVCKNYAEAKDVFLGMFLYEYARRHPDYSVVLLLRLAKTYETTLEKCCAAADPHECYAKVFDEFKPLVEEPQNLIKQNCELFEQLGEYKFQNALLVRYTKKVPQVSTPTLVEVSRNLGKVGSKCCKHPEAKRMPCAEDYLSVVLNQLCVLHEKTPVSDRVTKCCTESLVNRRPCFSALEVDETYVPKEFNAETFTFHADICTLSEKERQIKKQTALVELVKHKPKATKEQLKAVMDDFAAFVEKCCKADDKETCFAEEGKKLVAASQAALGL

Regarding `CCc1cc(O)c(Oc2ccc(C(=O)N3CCN(CN4CCOCC4)C(=O)C3)cc2F)cc1F` [Example 7, 4-[4-(4-Ethyl-5-fluoro-2-hydroxyphenoxy)-3-fluorobenzoyl]-1-(morpholinomethyl)piperazin-2-one], the MIC with MSSA (IHMA #555189) is 0.06 µg/mL (≈ 0.126 µM); in [1], more than 128 µg/mL; against E. coli (ATCC 25922), 4 µg/mL (≈ 8.41 µM); with MRSA (IHMA #510059), 0.06 µg/mL (≈ 0.126 µM); with C. albicans (ATCC 90028), more than 128 µg/mL; against E. faecalis (ATCC 29212), 64 µg/mL (≈ 135 µM). For the same molecule, at HSA, the “Binding to HSA (in words)” value was “moderate binding”. Besides, at HSA (37° C., pH 7.0, 100 μM), the “HSA Binding (%)” value was 74.9%. Moreover, the “C (average)” value on HSA (average of 3 tests) is listed as 0.75. Besides, the “k′ (average)” value at HSA (average of 3 tests) was 2.987. Besides, the “k′ (capacity factor)” value at HSA (single test) is 2.987 and 2.981 and 2.993.
For `Oc1cc(Cl)ccc1Oc1ccc(Cl)cc1Cl` [Triclosan], in data set [2], the median lethal dose (LD50) was 29 mg/kg.
With `CCc1cc(O)c(Oc2ccc(C(=O)N3CCN(CC(N)=O)C(=O)C3)cc2F)cc1F` [Example 6, 2-[4-(4-(4-Ethyl-5-fluoro-2-hydroxyphenoxy)-3-fluorobenzoyl]-2-oxopiperazin-1-yl)acetamide], the MIC in the data set with MSSA (IHMA #555189) (broth microdilution, MH broth) stood at 0.25 µg/mL (≈ 0.577 µM); in the data set with MRSA (IHMA #510059) (broth microdilution, MH broth) it was 4 µg/mL (≈ 9.23 µM).
On to `CCc1cc(O)c(Oc2ccc(C(=O)N3CCNC(=O)C3C)cc2F)cc1F` (centres unmarked) [Example 8, 4-[4-(4-Ethyl-5-fluoro-2-hydroxyphenoxy)-3-fluorobenzoyl]-3-methyl piperazin-2-one], for which the minimal inhibitory concentration (MIC) with MSSA (IHMA #555189) (broth microdilution, MH broth) turned out to be 0.06 µg/mL (≈ 0.154 µM); with MRSA (IHMA #510059) (broth microdilution, MH broth) it was 1 µg/mL (≈ 2.56 µM).
Taken in the same sequence, the figures for `CCc1cc(O)c(Oc2ccc(C(=O)N3CC(=O)NC(=O)C3)cc2F)cc1F` [Example 4, 4-[4-(4-Ethyl-5-fluoro-2-hydroxyphenoxy)-3-fluorobenzoyl]piperazine-2,6-dione] were 4 µg/mL (≈ 10.2 µM) and 32 µg/mL (≈ 82 µM).
With `CCOC(=O)Oc1cc(CC)c(F)cc1Oc1ccc(C(=O)N2CCNC(=O)C2)cc1F` [Example 3, 4-Fluoro-2-{2-fluoro-4-[(3-oxopiperazin-1-yl)carbonyl]phenoxy}-5-ethylphenyl ethyl carbonate], the half-maximal inhibitory concentration (IC50) in data set [3] amounted to 5000 nM.
As for `CCc1cc(O)c(Oc2ccc(C(=O)N3CCNC(=O)C3)cc2F)cc1F` [Example 1, 4-[4-(4-Ethyl-5-fluoro-2-hydroxyphenoxy)-3-fluorobenzoyl]piperazin-2-one], the concentration for half-maximal inhibition (IC50) in data set [3] amounted to 16 nM. For the same molecule, the results for the MIC in data set [4] (setting [6]) and in data set [4] (setting [7]) were 0.5 µg/mL and 0.25 µg/mL (≈ 0.664 µM), respectively. In addition, the “Protection of infected mice (survival rate)” value in data set [5] (single oral administration, 100 and 200 mg/kg) is listed as “able to protect mice against bacterial dissemination”; in data set [5] (single subcutaneous administration, 6.25 and 12.5 mg/kg), “able to protect mice against bacterial dissemination”.
In the case of `CCc1cc(O)c(Oc2ccc(C(=O)N3CCN(C)C(=O)C3)cc2F)cc1F` [Example 5, 4-[4-(4-Ethyl-5-fluoro-2-hydroxyphenoxy)-3-fluorobenzoyl]-1-methylpiperazin-2-one], the MIC in the data set with MSSA (IHMA #555189) (broth microdilution, MH broth) amounted to 0.015 µg/mL (≈ 0.0384 µM); with MRSA (IHMA #510059) (broth microdilution, MH broth), 1 µg/mL (≈ 2.56 µM).
Regarding `CCc1ccc(Oc2ccc(C(=O)N3CCNC(=O)C3)cc2F)c(O)c1` [Example 2, 4-[4-(4-Ethyl-2-hydroxyphenoxy)-3-fluorobenzoyl]piperazin-2-one], the IC50 in data set [3] came to 29 nM. Further, the figures for the MIC in [4] (setting [6]) and in [4] (setting [7]) were 1 µg/mL and 1 µg/mL (≈ 2.79 µM), respectively.

What is called MIC is the smallest concentration in the dilution series that meets the test's criterion for growth inhibition. The LD50 is the dose expected to kill half of the subjects tested. The IC50 is the concentration at which inhibition is half-maximal.
